For one assay, the target named is Succinate Dehydrogenase. Nature of the assay: Enzyme Inhibition I-50 (WGB): Succinate Dehydrogenase Assay using Septoria nodorum mitochondria. The format is biochemical. As to the method:
Succinate Dehydrogenase Assay using Septoria nodorum mitochondria--Septorianodorum mycelia are prepared from spores via shake culture for 40-48 hours in 3% malt extract at room temperature. The mycelia are harvested by centrifugation and the pellets obtained are stored in the -80° C. freezer until use.
Mitochondria are isolated by a method adapted from White (Biochem. Biophys. Res. Commun. 44 (1971) 1212-19). Fifteen to twenty grams of frozen mycelia are resuspended in a 250 mL medium containing 0.25M sucrose, 5 mM tetrasodium ethylenediamine tetraacetic acid (Na4 EDTA), pH 7.0 containing 1.5 g/liter bovine serum albumin (BSA) and placed in a Bead Beater chamber (BioSpec Products, Bartlesville, Okla.). Zirconium oxide beads (0.5 mm) are added to finish filling the chamber. Four 30s beats separated by 2 rain temperature equilibration periods on ice are used to break the mycelia. The homogenate is centrifuged for 20 min at 3000×g and 4° C. to remove debris. The supernatant is recentrifuged at 20,000×g for 20 min at 4° C. The resulting pellet is resuspended in BSA-free sucrose/EDTA medium (40 mL) using a glass tissue homogenizer and teflon pestle and recentrifuged at 27,000×g for 15 min at 4° C. The pellet is resuspended in BSA-free sucrose/EDTA medium (~3 mL) and used for SDH assays.
The enzyme activity is measured at […] in a solution containing 50 mM potassium phosphate, pH7.2; 1 mM potassium cyanide; 45 μM 2,6-dichlorophenol indophenol (DCPIP) and 17 mM disodium succinate in a final volume of 1 mL with a Perkin-Elmer Lambda 7 ultraviolet-visible spectrophotometer. The test compounds are added as acetone solutions (final concentration of acetone less than or equal to 1%(v/v)). The mitochondrial preparations are used to initiate the reaction. All rates are corrected for succinate-independent dye reduction. Semilog plots of percentage inhibition versus test compound concentration are used to determine inhibition expressed as I50 (μM) which is the concentration required to inhabit the rate of DCPIP reduction by 50%. The commercial fungicide carboxin is used as a standard throughout [I50 (μM)=5.0±2.2; n=52].

Assay [1] has as its system Botrytis cinerea Mitochondria. The settings on record: 1 μM concentration; cited from earlier work.
Assay [2] has as its system Pseudocercosporella herpotrichoides var. tritici. Nature of the assay: Wheat True Eyespot In Vitro Assay (WES In Vitro). The arrangement: key: 0: no inhibition of mycelial growth; 1: slight inhibition of mycelial growth; 2: moderate inhibition of mycelial growth; 3: strong inhibition of mycelial growth. The settings on record: 3 days at 19° C. It is filed as cell-based. The procedure:
A) Pathogen/Inoculum Production--A mycelial transfer of Pseudocercosporella herpotrichoides var. tritici is placed onto potato dextrose agar plates and allowed to grow for 40 days at 20 ° C., without light. Five agar discs are taken from the actively growing culture and are placed equidistant, mycelial side down, onto a water agar plate, and incubated at 10 ° C. with 10 hours of fluorescent light per day. After 5 days of incubation, sporulation on the transferred discs begins, and plates are flooded with 3-5 mls sterile deionized water. One-half ml aliquots are taken from the resulting spore suspension and placed on new water agar plates. Spores are spread across plates using a bent glass rod and incubated at 10 ° C. with 10 hour fluorescent light periods per day. In 5-10 days, a lawn of spores is produced and can be "harvested".
B) Compound Preparation and Test Execution--200 μl of 1/4 strength potato dextrose broth is placed in each well of a 96 well microtiter plate. […] The commercial standard used is prochloraz at equivalent rates.
C) Inoculation/Incubation--50 μl of a 1×10^6 spores/ml suspension harvested using the method above is added to each well. The 96 well plates are incubated for 3 days at 19° C. in the dark.
(§1) D) Evaluation--After incubation, each well is visually assessed for growth inhibition on the following 0-3 scale:
(§2) 0=no inhibition of mycelial growth
(§3) 1=slight inhibition of mycelial growth
(§4) 2=moderate inhibition of mycelial growth
(§5) 3=strong inhibition of mycelial growth

In assay [3] the test system is Erysiphe graminis f. sp. tritici. The assay can be described thus: Wheat Powdery Mildew Foliar Assay (WPM Prot). The format is in vivo. The procedure: A) Pathogen/Inoculum Production--Leaf material infected with the wheat powdery mildew fungus, Erysiphe graminis f. sp. tritici, is maintained continuously on wheat seedlings, cv. Caldewell.
(B) Host Propagation, (C) Compound Preparation and (D) Compound Application follow as per Example 1.
(E) Inoculation/Incubation--Inoculation of the test plants takes place 24 hours after compound application. Inoculation is accomplished by gently shaking plants previously infected with the Erysiphe graminis f. sp. tritici fungus over the test plants. This process liberates a cloud of spores which effectively and uniformly fall onto the test plants. After inoculation the plants are returned to the environmental conditions under which they were grown.
(F) Evaluation and (G) Data follow as per Example 1. The percent protection values for the compounds of the present invention are as set out in the Table below.

Assay [4] relates to Septoria nodorum. The assay can be described thus: Wheat Glume Blotch (WGB) In Vitro. The arrangement: key: 0: no inhibition of mycelial growth; 1: slight inhibition of mycelial growth; 2: moderate inhibition of mycelial growth; 3: strong inhibition of mycelial growth. The format is cell-based. The settings on record: 4-6 days at 25° C. The procedure: A) Pathogen/Inoculum Production--The wheat glume blotch fungus, Septoria nodorum, is cultured on yeast/malt agar at 22° C. and 12 hours fluorescent light. Several sterile loops full of mature pycnidia produced on a 7 day old culture plates are added to 30 mls of 1/4 strength potato dextrose broth. After 15 minutes the suspension is stirred, and adjusted to a concentration of 3×10^5 spores/mi.
B) Compound Preparation and Test Execution--200 μl of 1/4 strength potato dextrose broth is placed in each well of a 96 well microtiter plate. […] The commercial standard used is flusilazole, at equivalent rates.
C) Inoculation/Incubation--50 μl of a 3×10^5 spores/ml suspension obtained using the method above is added to each well. The 96-well plate is incubated for 4-6 days at 25° C., 12 hours fluorescent light.
as §1, §2, §3, §4, §5

Assay [5] has as its system Septoria nodorum. Nature of the assay: Wheat Glume Blotch Foliar Assay, protectant (WGB Prot). It is filed as in vivo. The settings on record: 10 ppm, application two days pre-inoculation. As to the method:
A) Host Propagation--Winter wheat plants, cv. Caldwell, are grown in 5.7 cm^2 pots, three per pot, and maintained in a growth chamber set at 20° C., 80% RH with a 12 hour photoperiod.
B) Compound Preparation--A 1.0% stock solution of each of the compounds of the present invention is first prepared utilizing an appropriate solvent such as acetone, water or DMSO. This stock is then used to prepare the final spray solution which contains the compound at the desired dosage, eg 100 ppm and 20 ppm, acetone at 20% v/v, Tween®20 at .05% w/v, and water at about 80%. Commercial standard used is tebuconazole at equivalent rates.
C) Compound Application, Seedlings are sprayed at the two-leaf stage (GS 12) using a DeVilbiss Model 152 hand operated sprayer set at 15-20 psi. Six ml of the test solution per treatment are applied to three pots. In the protectant assay (EXAMPLE 8), the compound application is made two days pre-inoculation. In the curative assay (EXAMPLE 9), the compound is applied during a brief interruption of the disease incubation period two days post-inoculation.
D) Pathogen Production/Inoculation--The wheat glume blotch fungus, Septoria nodorum, is maintained in the pycnidial state on yeast malt agar (YMA) and transferred weekly by streaking a suspension of conidia obtained from a ten to twelve day old sporulating culture onto fresh YMA plates. The plates are incubated at 20° C. with a 12 hour photoperiod.
Test inoculum is prepared by flooding seven day old culture plates with deionized water amended with Tween®20 (0.1% v/v) and gently scraping the pycnidia to release the extruding masses of conidia. The resulting spore suspension is filtered through two layers of cheese cloth and adjusted to 4×10^6 spores/ml utilizing the Tween®20 solution.
Forty-eight hours after the compound application and prior to inoculation, the test plants are preconditioned for at least one hour in a dark growth chamber set at 20° C. and 100% RH. After the preconditioning period is over, the conidial suspension is applied to run-off using a DiVilbiss hand operated sprayer. The plants are then returned to the preconditioning chamber and incubated at the same settings for 96 hours. Light is supplied to the plants during the last twelve hours of incubation. At the end of the 96 hour period, the plants are returned to the environmental conditions under which they were grown.
E) Test Evaluation--Eight to ten days after removal from the high humidity chamber, or twelve to fourteen days after inoculation, treatments are evaluated by visually estimating the percentage of the leaf area (on the first leaf) covered with lesions. Three ratings are made on each pot which constitutes a replicate. Each replicate then receives a numerical mean by averaging the three values. Percent disease, as well as percent control values are calculated. The percent control values obtained from these assays for the compounds of the present invention are as set out in the Table below.

SMILES strings stand for the structures. Read-outs that look alike come from different tables or passages of the source.

With `CC1=C(C(=O)Nc2ccccc2)SCCO1` [carboxin, reference compound], on Succinate Dehydrogenase (standard throughout, n=52, read-out: I50), the IC50 came out at 5 ± 2.2 µM. In addition, the respiratory inhibition in assay [1] is given as 68%.
In the case of `CCO[C@H]1CC[C@H](c2ccccc2NC(=O)c2cn(C)nc2C(F)F)CC1` [Number 7, 1H-pyrazole-4-carboxamide, 3-(difluoromethyl)-N-[2-(4-ethoxycyclohexyl)phenyl]-1-methyl-,trans-], the “WES In vitro growth inhibition 0-3 scale” value in assay [2] (0.1 ppm) came to 0; in assay [2] (0.5 ppm), 0; in assay [2] (5.0 ppm), 1. The “WPM Prot percent disease control” value in assay [3] (500 ppm foliar protectant) was determined as 96%. Also, the IC50 on Succinate Dehydrogenase (DCPIP reduction, read-out: WGB enzyme I-50) worked out at 0.17 µM. Besides, the “WGB In Vitro growth inhibition 0-3 scale” value was determined as 0 with Septoria nodorum [4] (0.1 ppm), 0 in the assay with Septoria nodorum [4] (0.5 ppm) and 1 in the assay on Septoria nodorum [4] (5.0 ppm).
For the compound `Cn1cc(C(=O)Nc2ccccc2C2CCC(C(F)(F)F)CC2)c(C(F)F)n1` (stereo not drawn) [Number 8], the “WPM Prot percent disease control” value in assay [3] (10 ppm foliar protectant) was found to be 91%. Moreover, the “WGB Prot percent control” value in the assay with Septoria nodorum [5] came out at 85%.

The record behind these values is patent publication US5498624A, “Selected pyrazolyl derivatives” (Monsanto Company, priority 1995, dated 1996).
